Assay: in vitro
Settings: human, Caco-2, pH 7.4
Protocol: Caco-2 cells were seeded on a 24-well plate, cultured at 37° C. for 21 to 23 days in a CO2 incubator, and then a Caco-2 cell monolayer membrane permeability test was conducted. After checking the membrane resistance value of the cell layer after the culture, the culture medium in the plate was replaced with HBSS (pH 7.4). […] For the control compounds, [^3H]propranolol as a high membrane permeability control and [^14C]mannitol as a low membrane permeability control were used.

SMILES	Papp A→B at 2 h, 10 μmol/L [×10⁻⁶ cm/s]
CC(C)NCC(O)COc1cccc2ccccc12 (centres unmarked) [[^3H]Propranolol, [^3H]propranolol]	28.9 ± 1.1
OC[C@@H](O)[C@@H](O)[C@H](O)[C@H](O)CO [[^14C]Mannitol, [^14C]mannitol]	0.53 ± 0.007
